Measurements as given in US20260345654A1, “2,8-DIHYDROXYQUINOLINE GLUCURONIDE DERIVATIVES WITH ENHANCED PROPERTIES FOR USE AS ANTICANCER, ANTIVIRAL, ANTIMICROBIAL, AND OTHER THERAPEUTIC APPLICATIONS” (priority 2023, published 2026).
“Also recorded” adds a separate entry of the source. Where two headings read alike, the source gives them in different places.

Columns and labels:
[1] = topical treatment of skin cancer; cited from earlier work
[2] = Chemical stability; format: physicochemical
[3] = Solubility; conditions: for solubility of copper complex: aqueous solutions
[4] = iodinated drug; cited from earlier work
[5] = system: BT-549 cells; assay: In vitro anti-proliferation (CellTiter-Glo, 72 hr), BT-549; format: cell-based; conditions: Homo sapiens, BT-549, 72 h, 72 hr, read-out: IC50
Description: (§1) Commercially available 8HQ and freshly synthesized G2-8HQ were prepared for in vitro anti-proliferative studies against the following cell lines with and without the presence of 10 μM Cu(+2): (1) A549: […]; (2) BT-549: epithelial cells from ductal tumor; (3) DU-145: human prostate cancer; (4) PANC-1: pancreatic cancer; (5) SU.86.86: a new adoptive pancreatic cell for immunotherapy studies; (6) RL: non-Hodgkin's lymphoma; (7) LnCAP, Prostate cancer cell line; (8) A431, a squamous cell carcinoma line; and (9) UACC-62 a malignant melanoma cell line.
(§2) With regard to the study protocol used, the objective was to conduct a study of the cytotoxicity of W1469 against several cancer cell lines. In the study protocol, preparations for the A549 (Lung) cell line screen are given as an example. The following materials were used: (1) FBS (2) RPMI-1640 medium supplemented with 10% FBS:’ and (3) A549 Cells. The four samples tested are referred to as Items 1-4 below and were placed at 4 °C upon arrival. These four samples were as follows: • Item 1: Tube A (W1469) (500 uM when FBS added) • Item 2: Tube B (W1469g) (1000 uM when FBS added) • Item 3: Tube C (W1469) • Item 4: Tube D (W1469g)
(§3) Add 50 μL of above 2× stocks to appropriate wells to expose appropriate cells to the final dilutions of samples. Add 50 μL media to media and cell control wells and 50 μL media mix to vehicle control wells. Cells are exposed for 72 hr. Following a 72 hr exposure to Sample, perform a CTG assay on all remaining plates.
(§4) At the end of the 72 hr exposure period, remove plates for CellTiter-Glo assay from 37 °C, 5% CO2 incubator and place on the bench at room temperature for 30 mins. Add 100 μL CellTiter-Glo reagent, mix for 2 mins, followed by a further 10 min incubation at room temperature. Record luminescence. Tables showing the resulting plate layouts are included below/

[6] = system: PANC-1 cells; assay: In vitro anti-proliferation (CellTiter-Glo, 72 hr), PANC-1; format: cell-based; conditions: Homo sapiens, PANC-1, 72 h, 72 hr
Description: as §1, §2, §3, §4

[7] = system: RIF tumor; conditions: cited from earlier work
[8] = system: RL cells; assay: In vitro anti-proliferation (CellTiter-Glo, 72 hr), RL; format: cell-based; conditions: for IC50: 72 hr, read-out: IC50
Description: as §1, §2, §3, §4

[9] = system: SU.86.86 cells; assay: In vitro anti-proliferation (CellTiter-Glo, 72 hr), SU.86.86; format: cell-based; conditions: Homo sapiens, SU.86.86, 72 h, 72 hr, read-out: IC50
Description: as §1, §2, §3, §4

[10] = system: DU-145 cells; assay: In vitro anti-proliferation (CellTiter-Glo, 72 hr), DU-145; format: cell-based, human; conditions: Homo sapiens, DU-145, 72 h, 72 hr, read-out: IC50
Description: as §1, §2, §3, §4

[11] = system: A549 cells; assay: In vitro anti-proliferation (CellTiter-Glo, 72 hr), A549; format: cell-based, human; conditions: Homo sapiens, A549, 72 h, 72 hr
Description: as §1, §2
Items 1 and 2 are sterile ready for the addition of 1 ml of sterile FBS. Final concentrations after addition of 1 ml: 500 μM for Tube A and 1000 μM for Tube B. Items 3 and 4 are described further below. In the protocol, media containing 10% FBS and 20 μM CuCl2 are used in Tubes C and D only. A and B are serially diluted in media with 10% FBS and no added copper.
The protocol method proceeds as follows:
Seed 2, 96-well plates of A549 cells with 5,000 cells per well in a total volume of 50 μL per well. Leave overnight. See plate layout below for which wells to seed with 100 μL of media for media control. The following day, cells are exposed to compounds as described below.
For Items 1 & 2, to make the 500 μM and 1000 μM Stocks of samples 1 and 2 (W1469 and W1469g): Add 1 ml of sterile FBS to each Tube A and Tube B, swirl to mix.
To make appropriate 2× final dilutions of sample 1, Tube A (W1469), the following amounts are used: • 500 μM: 10 mL as supplied • 100 μM: 2 mL 500 μM Sample+8 mL media • 30 μM: 3 mL 100 μM Sample+7 mL media • 10 μM: 3 mL 30 μM Sample+6 mL media • 3 μM: 3 mL 10 μM Sample+7 mL media • 1 μM: 3 mL 3 μM Sample+6 mL media • 0.3 μM: 3 mL 1 μM Sample+7 mL media • 0.1 μM: 3 mL 0.3 μM Sample+6 mL media
To make appropriate 2× final dilutions of sample 2, Tube B (W1469g), the following amounts are used: • 1000 μM: 10 mL as supplied • 300 μM: 3 mL 1000 μM Sample+7 mL media • 100 μM: 3 mL 300 μM Sample+6 mL media • 30 μM: 3 mL 100 μM Sample+7 mL media • 10 μM: 3 mL 30 μM Sample+6 mL media • 3 μM: 3 mL 10 μM Sample+7 mL media • 1 μM: 3 mL 3 μM Sample+6 mL media • 0.3 μM: 3 mL 1 μM Sample+7 mL media
For Items 3 & 4, the following protocol was used to make 1000 uM Stocks of samples 3 and 4 (W1469 and W1469g): • 1: Dissolve 3.37 mg W1469 and excipient (Tube C) in 1 ml RPMI medium without added FBS and copper and swirl briefly until completely dissolved. Add 9 ml of RPMI media containing 10% FBS and 20 uM copper. Swirl to mix. Sterile filter the 10 ml with provided syringes and filters. This is now the 1000 μM stock solution W1469 ready for screening • 2: Dissolve 3.2 mg W1469g and excipient (Tube D) in 1 ml RPMI medium without added FBS and copper and swirl briefly until completely dissolved. […] This is now the 1000 μM stock solution W1469g ready for screening. […]

[12] = system: A2780, A549 and MDA-MB-231 cells; conditions: cited from earlier work; for improvement with the addition of copper: with vs without copper
[13] = comparison Table 5; prior art compound; cited from earlier work
[14] = comparison Table 5; prior art compound; cited from earlier work; remark: listed apart in the source
[15] = In vitro anti-proliferation of commercial G8HQ; format: cell-based
Description: The present inventors obtained a commercial sample of G8HQ and tested it in vitro under conditions with copper added and found a possible reading of >500 uM IC 50, indicating no anti-proliferative activity, but such examination was cursory and not conclusive. Of further relevance, Oliveri 2012 designed an O-linked glucose adducts to the 8-hydroxy position of both 8HQ and CQ (FIG. 17). The resulting pro-drug form as expected abrogated the copper binding and eliminated the anti-cancer activity. […] The authors reasoned that the glucose adduct would improve solubility, and the glucose receptors over-populated on the surface of cancer cells. The anaerobic metabolism and high dependence on glucose that characterizes most cancers is a phenomenon known as the “Warburg Effect”.

[16] = system: cancer cell lines; conditions: comparison Table 5; prior art compound; cited from earlier work
[17] = +Cu (10 μM), G2-8HQ values based on MW of apo form (337)

Question: With O=c1[nH]cc(F)c(=O)[nH]1 [Fluorouracil] as the compound, how does the “Side Effects” value [1] read?
Answer: tender skin, serious allergic reaction

Question: With NCC(=O)CCC(=O)O [Aminolaevulinic acid (Levulan), Aminolaevulinic acid] as the compound, how does the “Side Effects” value [1] read?
Answer: Burning, Itching or Tingling, Rash or redness; also recorded: Light sensitivity (bright lights/sunshine)

Question: With O=C(O)[C@H]1O[C@@H](Oc2ccc3cccc(O)c3n2)[C@H](O)[C@@H](O)[C@@H]1O.[Cu+2] [G2-8HQ copper complex] as the compound, how does the “stability of copper complex” value ([2]; in excipient, 24 hours) read?
Answer: precipitation after 24 hours

Question: What about the “stability of copper complex” value ([2]; pH values less than 8) of the same compound?
Answer: rapid precipitated insoluble 2-8HQ copper complex

Question: And the “solubility of copper complex” value [3]?
Answer: highly soluble in aqueous solutions

Question: For CC(C)Cn1cnc2c(N)nc3ccccc3c21 [Zyclara, Alara (Imiquimod), Imiquimod], which “Side Effects” value [1] is on record?
Answer: headache or backpain, Diarrhea; also recorded: Redness, bleeding or flaking skin, swelling,; also recorded: blistering, sting or pain. Fatigue or tiredness,

Question: Which excretion [4] does the source give for O=C(O)[C@H]1O[C@@H](Oc2cccc3c(I)ccnc23)[C@H](O)[C@@H](O)[C@@H]1O [4-iodo, 8-hydroxy beta-D-glucopyranosiduronic acid] here?
Answer: mainly urinary

Question: Which IC50 [5, 17] does the source give for Oc1cccc2cccnc12 [8HQ, 8-hydroxyquinoline, reference compound] here?
Answer: 24.5 µM

Question: What about the IC50 ([5]; −Cu) of the same compound?
Answer: 9.9 µM

Question: And the IC50 [6, 17]?
Answer: 11.2 µM

Question: And the IC50 ([6]; −Cu)?
Answer: 9.3 µM

Question: What about the “tissue levels of 8-OHQ” value ([7]; all tissues, 2.0 to 24 hr after glucuronide injection, n = 3) of the same compound?
Answer: These data points, with n = 3 animals, also failed to show significant tissue levels of 8-OHQ.

Question: What about the IC50 [8, 17] of the same compound?
Answer: 0.07 µM

Question: What about the IC50 ([8]; Homo sapiens, RL, 72 h, +Cu (10 μM), G2-8HQ values based on MW of apo form (337)) of the same compound?
Answer: 0.06 µM

Question: What about the IC50 ([8]; Homo sapiens, RL, 72 h, −Cu) of the same compound?
Answer: 0.62 µM

Question: And the “increase of activity/cytotoxicity in presence of copper” value ([8]; RL, +Cu^+2 (10 or 20 μM) vs −Cu)?
Answer: 9 fold

Question: What about the IC50 [9, 17] of the same compound?
Answer: 46 µM

Question: What about the IC50 ([9]; −Cu) of the same compound?
Answer: > 50 µM

Question: What about the solubility ([3]; DMSO) of the same compound?
Answer: soluble

Question: What about the solubility ([3]; water / aqueous) of the same compound?
Answer: sparingly soluble

Question: What about the IC50 [10, 17] of the same compound?
Answer: 11.6 µM

Question: And the IC50 ([10]; −Cu)?
Answer: 11.6 µM

Question: What about the IC50 [11, 17] of the same compound?
Answer: 29 µM

Question: And the IC50 ([11]; −Cu)?
Answer: 12.7 µM

Question: What about the “cytotoxicity change with addition of Cu^+2” value ([12]; addition of Cu^+2 to the media) of the same compound?
Answer: significantly increased the cytotoxicity

Question: What about the “activity relative to CQ” value ([12]; unmodified 8HQ vs CQ) of the same compound?
Answer: 9 to 27 ×

Question: For Oc1cccc2cccnc12.[Cu+2] [8HQ copper complex, reference compound], which “solubility of copper complex” value [3] is on record?
Answer: aqueous insoluble

Question: For O=C(O)[C@H]1O[C@@H](Oc2cccc3cccnc23)[C@H](O)[C@@H](O)[C@@H]1O [G8HQ, 8-quinolinyl beta-D-glucopyranosiduronic acid], which tumor uptake ([7]; after acidification of tumors by hyperglycemia, mice) is on record?
Answer: rapid and significantly increased

Question: And the retention ([7]; after tumor acidification, mice)?
Answer: prolonged retention in tumor and the colon over all other tissues

Question: And the “tumor or general tissue partitioning” value ([7]; initial animal experiments, no acidification, mice)?
Answer: no significant tumor or general tissue partitioning

Question: What about the “metabolic clearance / elimination time” value ([7]; mice, post injection, listed as 8GHQ) of the same compound?
Answer: 3 h

Question: And the Complexes w/copper [13]?
Answer: No

Question: What about the “Solubility of Cu Complex/aqueous” value [14] of the same compound?
Answer: None

Question: And the activity ([15]; in vitro, without acidification)?
Answer: no activity

Question: And the IC50 ([15]; with copper added, cursory and not conclusive)?
Answer: > 500 µM

Question: And the “Active w/o Cu (cancer)” value [16]?
Answer: No

Question: For OC[C@H]1O[C@@H](Oc2cccc3cccnc23)[C@H](O)[C@@H](O)[C@@H]1O [Glu8HQ, 8-quinolinyl beta-D-glucopyranoside], which “activity relative to Glu8CQ” value ([12]; 20 μM Cu^+2) is on record?
Answer: 10 ×

Question: And the “enhancement of IC50 by copper” value ([12]; 20 μM Cu^+2)?
Answer: 18 ×

Question: And the “activity vs CQ analog” value ([12]; glucose derivatives, FIG. 18)?
Answer: greater activity than the CQ analog (GluCQ)

Question: And the “improvement with the addition of copper” value [12]?
Answer: 10-20 fold

Question: Which results are given for O=C(O)[C@H]1O[C@@H](Oc2cccc3cccnc23)[C@H](O)[C@@H](O)[C@@H]1O [GA8HQ]?
Answer: Complexes w/copper [13]: No; Solubility of Cu Complex/aqueous [14]: None, (8HQ poor); Active w/o Cu (cancer) [16]: No

Question: Which solubility ([3]; water / aqueous) does the source give for Oc1ccc2cccc(O)c2n1 [2-8HQ, 2,8-quinolinediol] here?
Answer: poor aqueous solubility; also recorded: insoluble in aqueous systems

Question: Which “enhancement of IC50 by copper” value ([12]; 20 μM Cu^+2) does the source give for OC[C@H]1O[C@@H](Oc2c(I)cc(Cl)c3cccnc23)[C@H](O)[C@@H](O)[C@@H]1O [GluCQ, 5-chloro-7-iodo-8-quinolinyl-β-D-glucopyranoside] here?
Answer: 9 ×

Question: What about the “improvement with the addition of copper” value [12] of the same compound?
Answer: about 2 fold
